Reference: patent publication US10584115B2, “Substituted pyridine and pyrazine BMI-1 inhibitors” (PTC Therapeutics, Inc., priority 2013, dated 2020)
pEC50: −log10 of the molar value.

tested on: Bmi-1 protein; assay: Sandwich ELISA Assay (Bmi-1 protein level in HT-1080 cells after compound treatment); type: cell-based; settings: Table 1, Bmi-1 sandwich ELISA, read-out: ELISA EC50 value for Bmi-1 protein
Outline: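 HT-1080 cells exposed to compounds for 40–48 h at 37 °C (0.5% DMSO final), then lysed. Bmi-1 in lysates measured by sandwich ELISA (mouse monoclonal capture, rabbit anti-Bmi-1 detection, HRP anti-rabbit, TMB), read at OD450 with OD570 reference against a recombinant Bmi-1 standard curve (0–8000 pg/mL).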

| SMILES | pEC50 |
| --- | --- |
| Cc1nc2cc(F)c(F)cc2n1-c1cncc(Nc2ccc(NCCN(C)C)nc2)n1 [compound 430, N^5-[6-(5,6-difluoro-2-methyl-1H-benzimidazol-1-yl)pyrazin-2-yl]-N^2-[2-(dimethylamino)ethyl]pyridine-2,5-diamine] | 5.52 to 7.00 |
| Cc1nc2ccccc2n1-c1cncc(Nc2ccc(B3OC(C)(C)C(C)(C)O3)cc2)n1 [compound 433, 6-(2-methyl-1H-benzimidazol-1-yl)-N-[4-(4,4,5,5-tetramethyl-1,3,2-dioxaborolan-2-yl)phenyl]pyrazin-2-amine] | 5.52 to 7.00 |
| Cc1nc2ccccc2n1-c1cncc(Nc2nc3ccc(C(F)(F)F)cc3s2)n1 [compound 440, N-[6-(2-methyl-1H-benzimidazol-1-yl)pyrazin-2-yl]-6-(trifluoromethyl)-1,3-benzothiazol-2-amine] | 5.52 to 7.00 |
| N#Cc1cc(Nc2ccc(Cl)nc2)nc(-c2c(CO)nc3ccc(F)cn23)c1 [compound 446, 2-[(6-chloropyridin-3-yl)amino]-6-[6-fluoro-2-(hydroxymethyl)imidazo[1,2-a]pyridin-3-yl]pyridine-4-carbonitrile] | 5.52 to 7.00 |
| Fc1cnc2nc(C3CC3)n(-c3cncc(Nc4ccc(OC(F)F)cc4)n3)c2c1 [compound 455, 6-(2-cyclopropyl-6-fluoro-1H-imidazo[4,5-b]pyridin-1-yl)-N-[4-(difluoromethoxy)phenyl]pyrazin-2-amine] | 7.00 to 8.00 |
| Fc1cnc2nc(C3CC3)n(-c3cncc(Nc4ccc(OC(F)(F)F)cc4)n3)c2c1 [compound 456, 6-(2-cyclopropyl-6-fluoro-1H-imidazo[4,5-b]pyridin-1-yl)-N-[4-(trifluoromethoxy)phenyl]pyrazin-2-amine] | 5.52 to 7.00 |
| Cc1nc2ccccc2n1-c1cncc(Nc2ccc(C(F)(F)F)cn2)n1 [compound 457, 6-(2-methyl-1H-benzimidazol-1-yl)-N-[5-(trifluoromethyl)pyridin-2-yl]pyrazin-2-amine] | 5.52 to 7.00 |
| Fc1cnc2nc(C3CC3)n(-c3cncc(Nc4ccc(C(F)(F)F)nc4)n3)c2c1 [compound 458, 6-(2-cyclopropyl-6-fluoro-1H-imidazo[4,5-b]pyridin-1-yl)-N-[6-(trifluoromethyl)pyridin-3-yl]pyrazin-2-amine] | 5.52 to 7.00 |
| Fc1cnc2nc(C3CC3)n(-c3cncc(Nc4ccc(OC(F)F)c(F)c4)n3)c2c1 [compound 459, 6-(2-cyclopropyl-6-fluoro-1H-imidazo[4,5-b]pyridin-1-yl)-N-[4-(difluoromethoxy)-3-fluorophenyl]pyrazin-2-amine] | 7.00 to 8.00 |
| Fc1cc2nc(C3CC3)n(-c3cncc(Nc4ccc(OC(F)F)cc4)n3)c2cc1F [compound 460, 6-(2-cyclopropyl-5,6-difluoro-1H-benzimidazol-1-yl)-N-[4-(difluoromethoxy)phenyl]pyrazin-2-amine] | 7.00 to 8.00 |
| N#Cc1cc(Nc2ccc(OC(F)F)c(F)c2)nc(-n2c(C3CC3)nc3c(F)cc(F)cc32)c1 [compound 476, 2-(2-cyclopropyl-4,6-difluoro-1H-benzimidazol-1-yl)-6-{[4-(difluoromethoxy)-3-fluorophenyl]amino}pyridine-4-carbonitrile] | 7.00 to 8.00 |
| FC(F)Oc1ccc(Nc2cncc(-c3cnc4ccccn34)n2)cc1 [compound 477, N-[4-(difluoromethoxy)phenyl]-6-(imidazo[1,2-a]pyridin-3-yl)pyrazin-2-amine] | 5.52 to 7.00 |
| N#Cc1cc(Nc2ccc(C(F)(F)F)cc2)nc(-n2c(C3CC3)nc3ncc(F)cc32)c1 [compound 490, 2-(2-cyclopropyl-6-fluoro-1H-imidazo[4,5-b]pyridin-1-yl)-6-{[4-(trifluoromethyl)phenyl]amino}pyridine-4-carbonitrile] | 7.00 to 8.00 |
| Cc1nc2cc(F)c(F)cc2n1-c1c[n+]([O-])cc(Nc2ccc(C(F)(F)F)cc2)n1 [compound 495, 6-(5,6-difluoro-2-methyl-1H-benzimidazol-1-yl)-N-[4-(trifluoromethyl)phenyl]pyrazin-2-amine 4-oxide] | 7.00 to 8.00 |
| Cc1nc2ccccc2n1-c1cc(N)cc(Nc2ccc(OC(F)F)cc2)n1 [compound 496, N^2-[4-(difluoromethoxy)phenyl]-6-(2-methyl-1H-benzimidazol-1-yl)pyridine-2,4-diamine] | 7.00 to 8.00 |
| Cc1nc2ccccc2n1-c1cc(F)cc(Nc2ccc(OC(F)F)cc2)n1 [compound 499, N-[4-(difluoromethoxy)phenyl]-4-fluoro-6-(2-methyl-1H-benzimidazol-1-yl)pyridin-2-amine] | 7.00 to 8.00 |
| Cc1nn2ccccc2c1-c1cncc(Nc2ccc(OC(F)(F)F)cc2)n1 [compound 500, 6-(2-methylpyrazolo[1,5-a]pyridin-3-yl)-N-[4-(trifluoromethoxy)phenyl]pyrazin-2-amine] | 7.00 to 8.00 |
| Cc1nc2cc(F)c(F)cc2n1-c1cncc(Nc2ccc(C=O)cc2)n1 [compound 502, 4-{[6-(5,6-difluoro-2-methyl-1H-benzimidazol-1-yl)pyrazin-2-yl]amino}benzaldehyde] | 7.00 to 8.00 |
| CCc1nc2cc(F)c(F)cc2n1-c1cc(N)cc(Nc2ccc(C(F)(F)F)cc2)n1 [compound 503, 6-(2-ethyl-5,6-difluoro-1H-benzimidazol-1-yl)-N^2-[4-(trifluoromethyl)phenyl]pyridine-2,4-diamine] | 7.00 to 8.00 |
| Nc1cc(Nc2ccc(C(F)(F)F)cc2)nc(-n2c(C3CC3)nc3cc(F)c(F)cc32)c1 [compound 504, 6-(2-cyclopropyl-5,6-difluoro-1H-benzimidazol-1-yl)-N^2-[4-(trifluoromethyl)phenyl]pyridine-2,4-diamine] | 7.00 to 8.00 |

Further lines, results first:

| pEC50 | SMILES |
| --- | --- |
| 7.00 to 8.00 | Cc1nc2ccc(F)cc2n1-c1cncc(Nc2ccc(Cl)nc2)n1 [compound 427, N-(6-chloropyridin-3-yl)-6-(6-fluoro-2-methyl-1H-benzimidazol-1-yl)pyrazin-2-amine] |
| 8.00 to 9.00 | Cc1nc2ncc(Cl)cc2n1-c1cc(C#N)cc(Nc2ccc(OC(F)F)cc2)n1 [compound 428, 2-(6-chloro-2-methyl-1H-imidazo[4,5-b]pyridin-1-yl)-6-{[4-(difluoromethoxy)phenyl]amino}pyridine-4-carbonitrile] |
| 8.00 to 9.00 | Cc1nc2ncc(Cl)cc2n1-c1cc(C#N)cc(Nc2ccc(OC(F)F)c(F)c2)n1 [compound 429, 2-(6-chloro-2-methyl-1H-imidazo[4,5-b]pyridin-1-yl)-6-{[4-(difluoromethoxy)-3-fluorophenyl]amino}pyridine-4-carbonitrile] |
| 7.00 to 8.00 | Cc1nc2cc(F)ccc2n1-c1cncc(Nc2ccc(C(F)(F)F)nc2)n1 [compound 431, 6-(5-fluoro-2-methyl-1H-benzimidazol-1-yl)-N-[6-(trifluoromethyl)pyridin-3-yl]pyrazin-2-amine] |
| 7.00 to 8.00 | Cc1nc2ccc(F)cc2n1-c1cncc(Nc2ccc(C(F)(F)F)nc2)n1 [compound 432, 6-(6-fluoro-2-methyl-1H-benzimidazol-1-yl)-N-[6-(trifluoromethyl)pyridin-3-yl]pyrazin-2-amine] |
| 7.00 to 8.00 | Cc1nc2ccccc2n1-c1cncc(Nc2ccc(B(O)O)cc2)n1 [compound 434, (4-{[6-(2-methyl-1H-benzimidazol-1-yl)pyrazin-2-yl]amino}phenyl)boronic acid] |
| 7.00 to 8.00 | Cc1nc2ncc(F)cn2c1-c1cc(C#N)cc(Nc2ccc(OC(F)(F)F)cc2)n1 [compound 438, 2-(6-fluoro-2-methylimidazo[1,2-a]pyrimidin-3-yl)-6-{[4-(trifluoromethoxy)phenyl]amino}pyridine-4-carbonitrile] |
| 7.00 to 8.00 | N#Cc1cc(Nc2ccc(C(F)(F)F)nc2)nc(-c2c(CO)nc3ccc(F)cn23)c1 [compound 445, 2-[6-fluoro-2-(hydroxymethyl)imidazo[1,2-a]pyridin-3-yl]-6-{[6-(trifluoromethyl)pyridin-3-yl]amino}pyridine-4-carbonitrile] |
| 7.00 to 8.00 | CCc1nc2ncc(Cl)cc2n1-c1cc(C#N)cc(Nc2ccc(C(F)(F)F)cc2)n1 [compound 450, 2-(6-chloro-2-ethyl-1H-imidazo[4,5-b]pyridin-1-yl)-6-{[4-(trifluoromethyl)phenyl]amino}pyridine-4-carbonitrile] |
| 8.00 to 9.00 | CCc1nc2ncc(Cl)cc2n1-c1cc(C#N)cc(Nc2ccc(OC(F)F)cc2)n1 [compound 451, 2-(6-chloro-2-ethyl-1H-imidazo[4,5-b]pyridin-1-yl)-6-{[4-(difluoromethoxy)phenyl]amino}pyridine-4-carbonitrile] |
| 7.00 to 8.00 | CCc1nc2ncc(Cl)cc2n1-c1cc(C#N)cc(Nc2ccc(OC(F)F)cc2)n1 [compound 452, 2-(6-chloro-2-ethyl-1H-imidazo[4,5-b]pyridin-1-yl)-6-{[4-(difluoromethoxy)phenyl]amino}pyridine-4-carbonitrile] |
| 7.00 to 8.00 | Cc1nc2ncc(F)cn2c1-c1cncc(Nc2ccc(C(F)(F)F)cc2)n1 [compound 453, 6-(6-fluoro-2-methylimidazo[1,2-a]pyrimidin-3-yl)-N-[4-(trifluoromethyl)phenyl]pyrazin-2-amine] |
| 8.00 to 9.00 | Cc1nn2ccccc2c1-c1cncc(Nc2ccc(OC(F)F)cc2)n1 [compound 498, N-[4-(difluoromethoxy)phenyl]-6-(2-methylpyrazolo[1,5-a]pyridin-3-yl)pyrazin-2-amine] |

same assay, conditions: read-out: ELISA EC50 value for Bmi-1 protein, Table 1, Bmi-1 sandwich ELISA

| SMILES | pEC50 |
| --- | --- |
| Cn1nc2c(c1-c1cncc(Nc3ccc(C(F)(F)F)cc3)n1)CCCC2 [compound 454, 6-(2-methyl-4,5,6,7-tetrahydro-2H-indazol-3-yl)-N-[4-(trifluoromethyl)phenyl]pyrazin-2-amine] | 8.00 to 9.00 |
| Cc1nc2ccccc2n1-c1ccc(N)c(Nc2ccc(C(F)(F)F)cc2)n1 [compound 465, 6-(2-methyl-1H-benzimidazol-1-yl)-N^2-[4-(trifluoromethyl)phenyl]pyridine-2,3-diamine] | 5.52 to 7.00 |
| Cc1nn2ccccc2c1-c1cncc(Nc2ccc(C(F)(F)F)cc2)n1 [compound 497, 6-(2-methylpyrazolo[1,5-a]pyridin-3-yl)-N-[4-(trifluoromethyl)phenyl]pyrazin-2-amine] | 8.00 to 9.00 |
